In US7842671B1, “Peptidomimetic inhibitors of STAT activity and uses thereof” (University of South Florida, priority 2003, dated 2010):
Square brackets hold non-standard residues; d marks the D form. Ends that are not written are not given here. pY = N[C@@H](Cc1ccc(OP(=O)(O)O)cc1)C(=O)O

Tests used:
NIH3T3/v-Src [1] = experiment: Apo-BrdU labeling and flow cytometry for apoptotic cells; type: cell-based, mouse; details: 48 h
Protocol: (§1) Cell proliferation, soft-agar growth and Apo-BrdU labeling studies. Proliferating fibroblasts and human tumor cells were counted by phase-contrast microscopy for viable cells (using tyrpan blue exclusion). Colony formation assays in six-well dishes and quantification of colonies by iodonitrotetrazolium violet have been previously described (Turkson, J. et al. (1999)). Treatment of cells with inhibitors was initiated 1 day after seeding cells by adding 75 μl of medium with or without inhibitor, and repeated every two to three days. Apoptosis was measured by Apo-BrdU labeling and following the supplier's (PharMingen; San Diego, Calif.) instructions.
(§2) Because one of the functions of Stat3 is to protect transformed or tumor cells from apoptosis (Catlett-Falcone, R. et al. (1999b); Epling-Burnette, P. K. et al. (2001); Grandis, J. R. et al. (2000); Bowman, T. et al. (2000b); Bromberg, J. F. et al. (1999)), the ability of peptidomimetics of the invention (and PY*LKTK-MTS for comparison) (SEQ ID NO. 1) to induce apoptosis in Stat3-dependent transformed fibroblasts was evaluated. Viral Src-transformed NIH3T3/v-Src fibroblasts were treated with or without compounds for 48 h. Treated cells were then labeled with Apo-BrdU (PharMingen; San Diego, Calif.) for detection of DNA breaks.

NIH3T3 = experiment: as above; type: cell-based, mouse; details: NIH3T3, 1 mM, 48 h, flow cytometry
Protocol: as §1, §2

NIH3T3/v-Src [2] = type: cell-based, mouse; details: 1 mM, four days
Protocol: as §1
(§3) Stat3 has an essential role in cell proliferation, and constitutively-active Stat3 is required for growth of transformed and tumor cells that harbor aberrant Stat3 signaling. Studies were performed to determine the effects of the peptidomimetic-mediated inhibition of Stat3 on cell proliferation using trypan blue exclusion for viable cell counts.

MDA-MB-435 = type: cell-based, human; details: 1 mM, MDA-MB-435, four days
Protocol: as §1, §3

MDA-MB-231 = type: cell-based, human; details: 1 mM, MDA-MB-231, four days
Protocol: as §1, §3

Stat3 = Stat3 (Mus musculus, UniProt P42227); set-up: nuclear extracts prepared from v-Src-transformed NIH3T3/v-Src; endogenous in cells; host or cells: NIH3T3/v-Src; details: Turkson J. et al. (2001); cited from earlier work
Chain of Stat3 (P42227 whole entry): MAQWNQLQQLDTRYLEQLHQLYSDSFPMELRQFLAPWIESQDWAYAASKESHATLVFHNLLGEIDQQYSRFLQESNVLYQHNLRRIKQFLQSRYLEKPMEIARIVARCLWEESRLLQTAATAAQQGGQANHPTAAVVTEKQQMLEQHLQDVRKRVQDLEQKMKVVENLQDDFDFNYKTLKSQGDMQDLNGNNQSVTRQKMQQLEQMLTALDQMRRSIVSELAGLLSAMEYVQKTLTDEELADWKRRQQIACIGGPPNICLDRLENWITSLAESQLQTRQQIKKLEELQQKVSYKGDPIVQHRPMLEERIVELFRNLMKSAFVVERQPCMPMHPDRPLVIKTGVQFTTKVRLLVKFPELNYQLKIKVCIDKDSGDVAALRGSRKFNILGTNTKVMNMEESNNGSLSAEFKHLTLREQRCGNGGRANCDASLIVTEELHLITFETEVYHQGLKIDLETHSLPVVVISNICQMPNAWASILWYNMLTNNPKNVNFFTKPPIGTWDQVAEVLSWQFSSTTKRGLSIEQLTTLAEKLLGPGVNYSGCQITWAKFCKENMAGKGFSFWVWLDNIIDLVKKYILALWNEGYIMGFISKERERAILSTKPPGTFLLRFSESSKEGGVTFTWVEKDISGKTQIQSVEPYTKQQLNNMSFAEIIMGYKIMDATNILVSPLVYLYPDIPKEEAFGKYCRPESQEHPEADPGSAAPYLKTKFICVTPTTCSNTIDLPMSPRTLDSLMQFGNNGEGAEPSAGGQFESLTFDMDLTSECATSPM

Substance: PY*LKTK-AAVLLPVLLAAP (P[pY]LKTKAAVLLPVLLAAP) [PY*LKTK-MTS]
- percent of apoptotic cells (NIH3T3/v-Src [1]; NIH3T3/v-Src, 1 mM, Apo-BrdU, flow cytometry): 27.6%
- incorporated BrdUTP compared to controls (in words) (NIH3T3/v-Src [1]; Src-transformed fibroblasts): dramatic increases in incorporated BrdUTP
- percent of apoptotic cells (NIH3T3): 3.7%
- cell proliferation (NIH3T3/v-Src [2]): significantly suppresses proliferation
- cell proliferation (MDA-MB-435): significantly suppresses proliferation
- cell proliferation (MDA-MB-231): significantly suppresses proliferation
- constitutive Stat3 activation in Src-transformed fibroblasts (Stat3): inhibits constitutive Stat3 activation
